Experimental data published in the NIST ThermoML archive (doi:10.1021/acs.jced.8b00854).

Assays:
[1] = xn = mol fraction of the nth substance listed; details: 100 kPa, Liquid, Vibrating tube method
[2] = refractive index (Na D-line) (dimensionless); xn = mol fraction of the nth substance listed; details: 100 kPa, Liquid, Standard Abbe refractometry

CCCCCCn1cc[n+](C)c1.F[B-](F)(F)F [1-hexyl-3-methylimidazolium tetrafluoroborate] + O
Details	mass density, [1] [kg/m3]	refractive index, [2]
293.15 K, x1 = 0.3006	1117.21	1.415
293.15 K, x1 = 0.4005	1125.26	1.418
293.15 K, x1 = 0.4999	1132.22	1.4195
293.15 K, x1 = 0.6008	1136.97	1.422
293.15 K, x1 = 0.7004	1140.58	1.4245
293.15 K, x1 = 0.7996	1143.29	1.425
293.15 K, x1 = 0.8997	1145.34	1.427
303.15 K, x1 = 0.3006	1109.91	1.414
303.15 K, x1 = 0.4005	1117.8	1.415
303.15 K, x1 = 0.4999	1125.06	1.417
303.15 K, x1 = 0.6008	1129.88	1.42
303.15 K, x1 = 0.7004	1133.55	1.422
303.15 K, x1 = 0.7996	1136.29	1.4235
303.15 K, x1 = 0.8997	1138.36	1.425
313.15 K, x1 = 0.3006	1102.56	1.409
313.15 K, x1 = 0.4005	1110.53	1.412
313.15 K, x1 = 0.4999	1117.91	1.4165
313.15 K, x1 = 0.6008	1122.81	1.419
313.15 K, x1 = 0.7004	1126.54	1.421
313.15 K, x1 = 0.7996	1129.34	1.4215
313.15 K, x1 = 0.8997	1131.42	1.423
323.15 K, x1 = 0.3006	1095.15	1.408
323.15 K, x1 = 0.4005	1103.23	1.4115
323.15 K, x1 = 0.4999	1110.76	1.415
323.15 K, x1 = 0.6008	1115.77	1.417
323.15 K, x1 = 0.7004	1119.58	1.419
323.15 K, x1 = 0.7996	1122.43	1.42
323.15 K, x1 = 0.8997	1124.55	1.421
333.15 K, x1 = 0.3006	1087.71	1.4075
333.15 K, x1 = 0.4005	1095.9	1.4115
333.15 K, x1 = 0.4999	1103.62	1.415
333.15 K, x1 = 0.6008	1108.78	1.4155
333.15 K, x1 = 0.7004	1112.66	1.417
333.15 K, x1 = 0.7996	1115.58	1.418
333.15 K, x1 = 0.8997	1117.73	1.419
343.15 K, x1 = 0.3006	1080.23	1.4075
343.15 K, x1 = 0.4005	1088.51	1.4095
343.15 K, x1 = 0.4999	1096.51	1.4125
343.15 K, x1 = 0.6008	1101.81	1.414
343.15 K, x1 = 0.7004	1105.77	1.4145
343.15 K, x1 = 0.7996	1108.76	1.416
343.15 K, x1 = 0.8997	1110.94	1.4165

CCCCCCCC[n+]1ccn(C)c1.F[B-](F)(F)F [1-methyl-3-octylimidazolium tetrafluoroborate] + O
Details	mass density, [1] [kg/m3]	refractive index, [2]
293.15 K, x1 = 0.3005	1084.34	1.4165
293.15 K, x1 = 0.4006	1089.21	1.4205
293.15 K, x1 = 0.5002	1094.12	1.424
293.15 K, x1 = 0.6001	1098.16	1.4265
293.15 K, x1 = 0.7006	1100.51	1.4285
293.15 K, x1 = 0.8004	1103.28	1.4305
293.15 K, x1 = 0.9015	1104.81	1.4315
303.15 K, x1 = 0.3005	1076.96	1.414
303.15 K, x1 = 0.4006	1082.09	1.419
303.15 K, x1 = 0.5002	1087.07	1.422
303.15 K, x1 = 0.6001	1091.18	1.425
303.15 K, x1 = 0.7006	1093.59	1.4265
303.15 K, x1 = 0.8004	1096.42	1.428
303.15 K, x1 = 0.9015	1098.01	1.4295
313.15 K, x1 = 0.3005	1069.66	1.413
313.15 K, x1 = 0.4006	1074.86	1.4165
313.15 K, x1 = 0.5002	1080	1.4205
313.15 K, x1 = 0.6001	1084.21	1.423
313.15 K, x1 = 0.7006	1086.68	1.4245
313.15 K, x1 = 0.8004	1089.58	1.4265
313.15 K, x1 = 0.9015	1091.22	1.427
323.15 K, x1 = 0.3005	1061.92	1.4125
323.15 K, x1 = 0.4006	1067.52	1.416
323.15 K, x1 = 0.5002	1072.9	1.419
323.15 K, x1 = 0.6001	1077.21	1.422
323.15 K, x1 = 0.7006	1079.77	1.423
323.15 K, x1 = 0.8004	1082.8	1.424
323.15 K, x1 = 0.9015	1084.48	1.4255
333.15 K, x1 = 0.3005	–	1.412
333.15 K, x1 = 0.4006	–	1.415
333.15 K, x1 = 0.5002	–	1.4185
333.15 K, x1 = 0.6001	–	1.4195
333.15 K, x1 = 0.7006	–	1.421
333.15 K, x1 = 0.8004	–	1.4225
333.15 K, x1 = 0.9015	–	1.4235
343.15 K, x1 = 0.3005	1041.36	1.412
343.15 K, x1 = 0.4006	1049.84	1.414
343.15 K, x1 = 0.5002	1057.37	1.417
343.15 K, x1 = 0.6001	1062.23	1.419
343.15 K, x1 = 0.7006	1065.07	1.419
343.15 K, x1 = 0.8004	1069.34	1.4205
343.15 K, x1 = 0.9015	1070.96	1.4215
